Test results reported in patent US20060247263A1, “Substituted heterocyclic compounds and methods of use” (Amgen Inc., priority 2005, published 2006).

The compounds below were run on LPS induced TNF release (assay: Lipopolysaccharide-Activated THP1 Cell TNF Production Assay). Conditions: Homo sapiens, THP-1, THP1 cells, 3 h at 37° C., secreted TNF-α.
Type: cell-based
Procedure: Lipopolysaccharide-Activated THP1 Cell TNF Production Assay
THP1 cells are resuspended in fresh THP1 media (RPMI 1640, 10% heat-inactivated FBS, 1XPGS, 1XNEAA, plus 30 μM βME) at a concentration of 1E6/mL. One hundred microliters of cells per well are plated in a polystyrene 96-well tissue culture. One microgram per mL of bacterial LPS is prepared in THP1 media and is transferred to the wells. Test compounds are dissolved in 100% DMSO and are serially diluted 3 fold in a polypropylene 96-well microtiter plate (drug plate). HI control and LO control wells contain only DMSO. One microliter of test compound from the drug plate followed by 10 μL of LPS are transferred to the cell plate. The treated cells are induced to synthesize and secrete TNF-α at 37° C. for 3 h. Forty microliters of conditioned media are transferred to a 96-well polypropylene plate containing 110 μL of ECL buffer (50 mM Tris-HCl pH 8.0, 100 mM NaCl, 0.05% Tween 20, 0.05% NaN3 and 1% FBS) supplemented with 0.44 nM MAB610 monoclonal Ab (R&D Systems), 0.34 nM ruthenylated AF210NA polyclonal Ab (R&D Systems) and 44 μg/mL sheep anti-mouse M280 Dynabeads (Dynal). After a 2 h incubation at RT with shaking, the reaction is read on the ECL M8 Instrument (IGEN Inc.). A low voltage is applied to the ruthenylated TNF-α immune complexes, which in the presence of TPA (the active component in Origlo), results in a cyclical redox reaction generating light at […]. The amount of secreted TNF-α in the presence of compound compared with that in the presence of DMSO vehicle alone (HI control) is calculated using the formula:% control (POC)=(cpd−average LO)/(average HI−average LO)*100. Data (consisting of POC and inhibitor concentration in μM) is fitted to a 4-parameter equation (y=A+((B−A)/(1+((x/C)ˆD))), where A is the minimum y (POC) value, B is the maximum y (POC), C is the x (cpd concentration) at the point of inflection and D is the slope factor) using a Levenburg-Marquardt non-linear regression algorithm.

IC50, ≤ 20 µM:
CN(c1cc(-c2ccccc2)c2ncn(C)c2c1)c1ccnc(NC2CCNCC2)n1, CC(Cc1cccc(CO)c1)Nc1nccc(N(C)c2cc(-c3ccccc3)c3ncn(C)c3c2)n1 (stereo not shown) [(3-(2-(4-(Methyl(3-methyl-7-phenyl-3H-benzo[d]imidazol-5-yl)amino)pyrimidin-2-ylamino)propyl)phenyl)methanol], CC(Cc1cccc(CN)c1)Nc1nccc(N(C)c2cc(-c3ccccc3)c3ncn(C)c3c2)n1 (stereo not shown) [N2-(1-(3-(Aminomethyl)phenyl)propan-2-yl)-N-4-methyl-N-4-(3-methyl-7-phenyl-3H-benzo[d]imidazol-5-yl)pyrimidine-2,4-diamine], CC(Cc1cccc(CN=[N+]=[N-])c1)Nc1nccc(N(C)c2cc(-c3ccccc3)c3ncn(C)c3c2)n1 (stereo not shown) [N2-(1-(3-(Azidomethyl)phenyl)propan-2-yl)-N-4-methyl-N-4-(3-methyl-7-phenyl-3H-benzo[d]imidazol-5-yl)pyrimidine-2,4-diamine], CC(Cc1cccc(CN)c1)Nc1nccc(N(C)c2cc(-c3ccccc3)c3c(c2)ncn3C)n1 (stereo not shown) [N2-(1-(3-(aminomethyl)phenyl)propan-2-yl)-N-4-methyl-N-4-(1-methyl-7-phenyl-1H-benzo[d]imidazol-5-yl)pyrimidine-2,4-diamine], CN(c1cc(-c2ccccc2)c2ncn(C)c2c1)c1ccnc(NCCc2ccccc2Cl)n1 [N2-(2-chlorophenethyl)-N-4-methyl-N-4-(3-methyl-7-phenyl-3H-benzo[d]imidazol-5-yl)pyrimidine-2,4-diamine], CN(c1cc(-c2ccccc2)c2ncn(C)c2c1)c1ccnc(NC2CCC(N)CC2)n1 (stereo not shown) [N2-((1 s,4s)-4-aminocyclohexyl)-N-4-methyl-N-4-(3-methyl-7-phenyl-3H-benzo[d]imidazol-5-yl)pyrimidine-2,4-diamine], C[C@H](N)c1cccc(C[C@H](C)Nc2nccc(N(C)c3cc(-c4ccccc4)c4ncn(C)c4c3)n2)c1 [N2-((S)-1-(3-((S)-1-Aminoethyl)phenyl)propan-2-yl)-N-4-methyl-N-4-(3-methyl-7-phenyl-3H-benzo[d]imidazol-5-yl)pyrimidine-2,4-diamine], CC(C)CNc1nccc(N(C)c2cc(-c3ccccc3)c3ncn(C)c3c2)n1 [N2-isobutyl-N-4-methyl-N-4-(3-methyl-7-phenyl-3H-benzo[d]imidazol-5-yl)-pyrimidine-2,4-diamine], CN(c1cc(-c2ccccc2)c2nc[nH]c2c1)c1ccnc(NCCc2cccnc2)n1 [N4-Methyl-N-4-(7-phenyl-3H-benzo[d]imidazol-5-yl)-N-2-(2-(pyridin-3-yl)ethyl)-pyrimidine-2,4-diamine], CN(c1cc(-c2ccccc2)c2ncn(C)c2c1)c1ccnc(NCCc2cccnc2)n1 [N4-methyl-N-4-(3-methyl-7-phenyl-3H-benzo[d]imidazol-5-yl)-N-2-(2-(pyridin-3-yl)ethyl)pyrimidine-2,4-diamine], CN(c1cc(-c2ccccc2)c2ncn(C)c2c1)c1ccnc(NCCOc2ccccc2)n1 [N-4-methyl-N-4-(3-methyl-7-phenyl-3H-benzo[d]imidazol-5-yl)-N-2-(2-phenoxy-ethyl)pyrimidine-2,4-diamine], CN(c1cc(-c2ccccc2)c2ncn(C)c2c1)c1ccnc(NC2CCN(C(=O)OC(C)(C)C)CC2)n1 [tert-Butyl 4-(4-(methyl(3-methyl-7-phenyl-3H-benzo[d]imidazol-5-yl)amino)-pyrimidin-2-ylamino)piperidine-1-carboxylate]
